Columns and labels:
rice [1] = assay: Post emergence outdoor plot test No. 3, rice (Example 16); type: in vivo; details: 45 days, emulsifiable oil
Procedure: Some plots, 12 m^2 each, delimited by artificial levees, were prepared outdoors. AFter soil working and grading, the plots were sowed with Echinocloa spp. on May 18, 1970 and then flooded to a height of 10 cm. with water on May 20, 1970. The same day, rice was sowed in quantities corresponding to 150 kg. of seed per ha. Both rice and Echinocloa emerged from the soil 5 days after the flooding.
When the barnyard grass reached an average height of 12-14 cm., the treatment was effected by uniformly spraying the flooded water surface.
Products being tested: M3432 and molinate, in emulsifiable oil base.
Doses: 0, 4, and 6 kg./ha.
The first effects on Echinocloa spp. were noticed for both products 7 days after treatment, 45 Days after treatment the following was observed: […]

rice [2] = assay: Outdoor comparison of rice stimulating action of M3432 with lower homologues and isomers (Example 11); type: in vivo; details: 21 days after sowing
Procedure: In the province of Pavia, a test was carried out with outdoor treatments in a loam soil, on rice plots having a 12 m^2 surface each.
Formulations of 20% M3432 in emulsifiable oil were compared with 20% formulations in emulsifiable oil of S-benzyl-N,N-diisopropyl thiocarbamate; S-benzyl-N,N-diisobutylthiocarbamate; and S-benzyl-N,N-din.butylthiocarbamate employing quantities of 4, 6 and 20 kg./ha.
For each treatment, the results were gathered on 20 plants 21 days after the sowing.

grass (Echinocloa spp.) = assay: Residual activity, second sowing with grass 24 days after treatment (Example 14); type: in vivo; details: additional 24 days
Procedure: The same method described in Example 9 was followed, the only variation being in sowing Echinocloa spp. (40 slightly pregerminated seeds per box) instead of rice.
After the Echinocloa spp. plants were killed, a second sowing with grass was carried out in the same boxes, 24 days after the treatment, employing 20 slightly pre-germinated seeds per box.

rice [3] = assay: Rice seed surface treatment, pots, test No. 1 (Example 17); type: in vivo, rice cv. RIBE; details: 41 days
Procedure: A set of glass pots was prepared as described in Example 7. Immediately after such preparation the pots were filled with water to a level of 7 cm. above the ground surface. Cv. RIBE rice seeds, which were previously allowed to swell in water, were divided into four groups. Each group was treated, by application with a micro syringe with a quantity of M3432 composition; containing 70% active product, corresponding to the following doses of a.p. per ha.: 0, 2.5, 5, and 10 kg. 15 seeds coated with the compound were placed into each pot and subsequently covered with a thin layer of earth. After 41 days, the following results were obtained.

[4] = Solubility and volatility; type: physicochemical

With `CCSC(=O)N1CCCCCC1` [Molinate, ethyl-1-hexamethylene-imino-carbothiolate, reference compound] the Effect on rice (rice [1]; 4 kg./ha.) was “Stronger than the control” and the Effect on rice (rice [1]; 6 kg./ha.) was “Stronger than the control”.

Compound `CCC(C)N(C(=O)SCc1ccccc1)C(C)CC` (stereo not shown) [M3432, S-benzyl-N,N-disec.butylthiocarbamate] has a Main roots (rice [2]; 4 kg./ha.) of 5.55 No, a Secondary roots (rice [2]; 4 kg./ha.) of 2.52 No and a Shoot (rice [2]; 4 kg./ha.) of 7.11 cm. For the same compound, the Main roots (rice [2]; 6 kg./ha.) was 5.73 No, the Secondary roots (rice [2]; 6 kg./ha.) was 2.63 No and the Shoot (rice [2]; 6 kg./ha.) was 7.34 cm. It also gave a Main roots (rice [2]; 20 kg./ha.) of 6.76 No, a Secondary roots (rice [2]; 20 kg./ha.) of 2.63 No and a Shoot (rice [2]; 20 kg./ha.) of 7.68 cm. For the same compound, the Shoot (grass (Echinocloa spp.); 2 kg./ha.) was 26.5 cm, the Stand (grass (Echinocloa spp.); 2 kg./ha.) was 100% and the Shoot (grass (Echinocloa spp.); 4 kg./ha.) was 27.0 cm. It also gave a Stand (grass (Echinocloa spp.); 4 kg./ha.) of 65%, a Shoot (grass (Echinocloa spp.); 6 kg./ha.) of 0 cm and a Stand (grass (Echinocloa spp.); 6 kg./ha.) of 0%. The Shoot (grass (Echinocloa spp.); 8 kg./ha.) was 0 cm, the Stand (grass (Echinocloa spp.); 8 kg./ha.) was 0% and the Main root (rice [3]; 2.5 kg./ha.) was 8.93 cm. For the same compound, the Secondary roots (rice [3]; 2.5 kg./ha.) was 3.90 no, the Shoot (rice [3]; 2.5 kg./ha.) was 17.16 cm and the Stand (rice [3]; 2.5 kg./ha.) was 68.80%. It also gave a Main root (rice [3]; 5 kg./ha.) of 8.48 cm, a Secondary roots (rice [3]; 5 kg./ha.) of 4.02 no and a Shoot (rice [3]; 5 kg./ha.) of 16.83 cm. For the same compound, the Stand (rice [3]; 5 kg./ha.) was 62.20%, the Main root (rice [3]; 10 kg./ha.) was 10.07 cm and the Secondary roots (rice [3]; 10 kg./ha.) was 4.23 no. For the same compound, the Shoot (rice [3]; 10 kg./ha.) was 16.92 cm, the Stand (rice [3]; 10 kg./ha.) was 62.20% and the Volatility [4] was “not volatile”. For the same compound, the “Solubility in organic solvents” value ([4]; benzene, ether, heptane, methanol, cyclohexanone, acetone, methyl chloride, dichloroethane) was “soluble” and the Solubility in water ([4]; water) was “practically insoluble”.
